From US3962243A (Laboratories Made, S.A., priority 1974, dated 1976)

Key:
bronchial spasm = experiment: Bronchial spasmolytic action; format: in vivo
[1] = system: rat complete brain homogenates; experiment: Action on cerebral oxidative activity (oxygen consumption); conditions: 1 × 10^-^3 and 1 × 10^-^4 M
mice = experiment: Sub-acute and chronic toxicity; format: in vivo; conditions: administration to mice over periods of 2 and 6 months

## 2-[(2-dimethylaminoethyl) (p-methoxybenzyl)amino]-pyridine 1,2,3,6-tetrahydro-1,3-dimethyl-2,6-dioxopurin-7-acetate
Bronchial spasm; in vivo
  duration of activity, bronchial spasmolytic action: over 5 hours
Bronchial spasm; oral, rectal, intramuscular and intravenous
  action against bronchial spasm by route: Effective action against bronchial spasm is obtainable by all routes
Bronchial spasm; very small doses
  active dose, bronchial spasmolytic action: 6 µg/kg
[1]
  inhibition of the oxygen consumption: strong inhibition of the oxygen consumption
mice
  microscopic or macroscopic organ alteration: No microscopic or macroscopic organ alteration
